Data reported in article PMC7445743 (Journal of Medicinal Chemistry, 2020).
Where a name gives a salt, the structure may show the parent alone.

Legend:
Settings in all cases: supplement CSV
CAMK2A = CAMK2A (Homo sapiens, UniProt Q9UQM7)
CAMK1G = CAMK1G (Homo sapiens, UniProt Q96NX5)
DAPK3 = DAPK3 (Homo sapiens, UniProt O43293)
CaMK4 = biological target: T1, CaMK4 (Homo sapiens, UniProt Q16566)
T1 sequence (Q16566 1-473): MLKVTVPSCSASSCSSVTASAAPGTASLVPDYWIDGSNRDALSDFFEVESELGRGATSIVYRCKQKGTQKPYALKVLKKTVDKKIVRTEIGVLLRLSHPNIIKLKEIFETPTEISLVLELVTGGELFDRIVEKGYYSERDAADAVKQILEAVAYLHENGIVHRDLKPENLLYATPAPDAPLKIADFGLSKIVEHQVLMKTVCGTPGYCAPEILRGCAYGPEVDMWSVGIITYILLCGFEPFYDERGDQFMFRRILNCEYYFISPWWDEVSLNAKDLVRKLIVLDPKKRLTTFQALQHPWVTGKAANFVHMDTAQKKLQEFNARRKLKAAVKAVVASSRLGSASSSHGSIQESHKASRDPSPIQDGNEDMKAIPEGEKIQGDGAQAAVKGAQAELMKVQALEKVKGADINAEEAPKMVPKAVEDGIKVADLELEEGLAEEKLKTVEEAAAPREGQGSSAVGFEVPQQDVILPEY

GSK3β = GSK3β (Homo sapiens, UniProt P49841)
DCLK1 = biological target: T2, DCLK1 (Homo sapiens, UniProt O15075)
T2 sequence (O15075 1-740): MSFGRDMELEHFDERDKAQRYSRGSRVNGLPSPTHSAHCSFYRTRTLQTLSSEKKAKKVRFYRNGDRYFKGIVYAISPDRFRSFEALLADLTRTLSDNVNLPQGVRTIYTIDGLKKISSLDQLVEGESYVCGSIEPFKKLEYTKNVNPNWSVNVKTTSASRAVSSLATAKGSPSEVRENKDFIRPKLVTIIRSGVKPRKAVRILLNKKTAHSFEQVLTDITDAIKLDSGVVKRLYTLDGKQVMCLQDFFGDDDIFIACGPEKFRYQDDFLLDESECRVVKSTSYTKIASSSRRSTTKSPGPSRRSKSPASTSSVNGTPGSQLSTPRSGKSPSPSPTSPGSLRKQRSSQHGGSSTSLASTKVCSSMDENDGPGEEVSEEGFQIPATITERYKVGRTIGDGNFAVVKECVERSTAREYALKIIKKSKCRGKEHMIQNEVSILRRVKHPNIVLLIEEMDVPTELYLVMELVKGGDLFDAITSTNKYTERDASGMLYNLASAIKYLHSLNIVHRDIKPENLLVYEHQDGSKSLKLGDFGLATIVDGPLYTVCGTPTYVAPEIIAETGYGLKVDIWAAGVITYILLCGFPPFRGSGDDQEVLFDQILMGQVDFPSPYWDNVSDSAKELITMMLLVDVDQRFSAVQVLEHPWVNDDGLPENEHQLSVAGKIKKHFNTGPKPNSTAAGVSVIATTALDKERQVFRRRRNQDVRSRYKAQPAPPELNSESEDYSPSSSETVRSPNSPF

PAK4 = PAK4 (Homo sapiens, UniProt O96013)
Sequence of PAK4 (O96013 whole entry): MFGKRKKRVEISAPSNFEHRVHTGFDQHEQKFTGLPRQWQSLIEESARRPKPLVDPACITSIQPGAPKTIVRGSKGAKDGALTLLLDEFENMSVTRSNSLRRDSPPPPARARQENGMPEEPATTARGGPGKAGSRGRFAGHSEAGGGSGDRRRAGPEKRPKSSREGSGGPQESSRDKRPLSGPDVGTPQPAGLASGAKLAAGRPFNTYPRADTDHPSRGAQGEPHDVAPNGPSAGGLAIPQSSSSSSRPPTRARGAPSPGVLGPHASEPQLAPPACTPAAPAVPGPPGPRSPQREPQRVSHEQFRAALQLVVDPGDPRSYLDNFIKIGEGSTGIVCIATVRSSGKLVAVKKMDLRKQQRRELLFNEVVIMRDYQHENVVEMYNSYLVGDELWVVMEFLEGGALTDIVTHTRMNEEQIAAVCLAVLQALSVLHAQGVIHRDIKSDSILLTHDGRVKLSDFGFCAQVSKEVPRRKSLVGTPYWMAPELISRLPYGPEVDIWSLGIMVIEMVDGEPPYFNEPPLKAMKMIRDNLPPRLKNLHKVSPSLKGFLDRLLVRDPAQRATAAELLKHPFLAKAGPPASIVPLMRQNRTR

Sequence of CAMK2A (Q9UQM7 whole entry): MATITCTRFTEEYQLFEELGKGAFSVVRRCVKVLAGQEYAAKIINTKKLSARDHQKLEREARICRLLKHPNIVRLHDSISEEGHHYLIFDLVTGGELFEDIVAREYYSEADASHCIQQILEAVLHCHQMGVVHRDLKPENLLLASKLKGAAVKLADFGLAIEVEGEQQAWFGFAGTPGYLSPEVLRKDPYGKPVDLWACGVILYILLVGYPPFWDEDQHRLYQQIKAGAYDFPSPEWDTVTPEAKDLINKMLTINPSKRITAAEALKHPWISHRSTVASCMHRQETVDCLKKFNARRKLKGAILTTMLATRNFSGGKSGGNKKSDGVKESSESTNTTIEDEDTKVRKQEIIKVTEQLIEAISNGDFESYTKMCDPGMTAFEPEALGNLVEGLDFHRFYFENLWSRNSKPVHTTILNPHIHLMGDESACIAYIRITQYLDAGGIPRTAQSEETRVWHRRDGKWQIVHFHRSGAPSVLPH
Sequence of DAPK3 (O43293 whole entry): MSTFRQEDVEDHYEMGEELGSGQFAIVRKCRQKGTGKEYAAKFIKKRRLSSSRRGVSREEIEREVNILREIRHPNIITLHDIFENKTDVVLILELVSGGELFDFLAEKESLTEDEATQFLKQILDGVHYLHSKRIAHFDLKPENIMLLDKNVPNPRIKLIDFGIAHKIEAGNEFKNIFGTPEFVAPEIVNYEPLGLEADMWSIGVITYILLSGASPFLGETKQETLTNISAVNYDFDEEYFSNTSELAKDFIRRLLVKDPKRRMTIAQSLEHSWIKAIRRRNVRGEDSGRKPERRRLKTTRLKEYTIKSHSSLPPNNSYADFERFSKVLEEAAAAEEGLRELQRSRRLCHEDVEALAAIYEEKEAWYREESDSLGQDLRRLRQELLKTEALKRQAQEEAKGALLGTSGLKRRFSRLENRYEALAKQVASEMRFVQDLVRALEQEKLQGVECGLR
Sequence of GSK3β (P49841 whole entry, species assumed): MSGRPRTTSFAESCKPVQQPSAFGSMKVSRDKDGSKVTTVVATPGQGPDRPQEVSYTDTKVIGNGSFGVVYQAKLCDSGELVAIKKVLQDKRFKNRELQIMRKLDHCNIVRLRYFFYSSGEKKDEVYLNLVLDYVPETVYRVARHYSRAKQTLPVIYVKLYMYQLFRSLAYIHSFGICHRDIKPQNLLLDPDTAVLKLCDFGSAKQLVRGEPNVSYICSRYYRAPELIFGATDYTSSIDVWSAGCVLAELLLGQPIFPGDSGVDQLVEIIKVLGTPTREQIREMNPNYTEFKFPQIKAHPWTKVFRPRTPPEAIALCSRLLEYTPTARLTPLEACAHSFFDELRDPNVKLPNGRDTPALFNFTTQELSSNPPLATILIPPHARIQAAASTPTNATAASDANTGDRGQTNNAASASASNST
Sequence of CAMK1G (Q96NX5 whole entry): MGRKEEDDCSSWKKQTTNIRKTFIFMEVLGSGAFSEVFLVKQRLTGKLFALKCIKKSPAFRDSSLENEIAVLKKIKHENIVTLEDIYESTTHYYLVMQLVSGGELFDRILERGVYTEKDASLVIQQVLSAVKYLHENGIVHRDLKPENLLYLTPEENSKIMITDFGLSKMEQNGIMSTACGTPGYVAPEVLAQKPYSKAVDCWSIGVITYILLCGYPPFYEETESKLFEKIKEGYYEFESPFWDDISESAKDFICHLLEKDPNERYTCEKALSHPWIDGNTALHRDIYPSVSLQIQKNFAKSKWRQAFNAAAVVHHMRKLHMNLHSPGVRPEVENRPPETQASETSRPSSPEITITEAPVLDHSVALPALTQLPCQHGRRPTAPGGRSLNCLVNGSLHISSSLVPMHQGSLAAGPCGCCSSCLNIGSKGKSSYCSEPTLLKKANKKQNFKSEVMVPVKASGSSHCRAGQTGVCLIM

| SMILES | CAMK2A Tm (CAMK2A) | CAMK1G Tm (CAMK1G) | DAPK3 Tm (DAPK3) | CAMK4 Tm (CaMK4) | GSK3B Tm (GSK3β) | DCAMKL1 Tm (DCLK1) | PAK4 Tm (PAK4) |
| --- | --- | --- | --- | --- | --- | --- | --- |
| NC(=O)c1cnc(N2CCCC(N)C2)nc1Nc1cccc(C(F)(F)F)c1 (racemic) [Compound 6, (rac)-2-(3-Aminopiperidin-1-yl)-4-((3-(trifluoromethyl)phenyl)amino)pyrimidine-5-carboxamide Hydrochloride] | 1.21 0C | 8.82 0C |  |  |  |  |  |
| CNC(=O)c1cnc(NCCN)nc1Nc1cccc(C(F)(F)F)c1 [Compound 2, 2-((2-Aminoethyl)amino)-N-methyl-4-((3-(trifluoromethyl)phenyl)amino)pyrimidine-5-carboxamide, reference compound] | -0.22 0C | 0.15 0C |  |  |  |  |  |
| CNCCN(C)c1ncc(C(N)=O)c(Nc2cccc(C(F)(F)F)c2)n1 [Compound 4, 2-(Methyl(2-(methylamino)ethyl)amino)-4-((3-(trifluoromethyl)phenyl)amino)pyrimidine-5-carboxamide Hydrochloride] | 0.1 0C | 1.13 0C |  |  |  |  |  |
| CN(C)CCN(C)c1ncc(C(N)=O)c(Nc2cccc(C(F)(F)F)c2)n1 [Compound 5, 2-((2-(Dimethylamino)ethyl)(methyl)amino)-4-((3-(trifluoromethyl)phenyl)amino)pyrimidine-5-carboxamide Hydrochloride] | 0.29 0C | 2.78 0C |  |  |  |  |  |
| NC(=O)c1cnc(N2CCC[C@H](N)C2)nc1Nc1cc(C(F)(F)F)cc(C(F)(F)F)c1 [Compound 9] | 1.09 0C | 16.18 0C | 8.72 0C | 7.06 0C | -0.47 0C | 1.22 0C | 3.17 0C |
| CC(C)(C)c1cccc(Nc2nc(N3CCC[C@H](N)C3)ncc2C(N)=O)c1 [Compound 10, (S)-2-(3-Aminopiperidin-1-yl)-4-((3-(tert-butyl)phenyl)amino)pyrimidine-5-carboxamide Hydrochloride] | 0.77 0C | 9.24 0C | 5.43 0C | 3.78 0C | 0.67 0C | 0.3 0C | 1.24 0C |
| CS(=O)(=O)c1cccc(Nc2nc(N3CCC[C@H](N)C3)ncc2C(N)=O)c1 [Compound 11, (S)-2-(3-Aminopiperidin-1-yl)-4-((3-(methylsulfonyl)phenyl)amino)pyrimidine-5-carboxamide] | 0.53 0C | 7.26 0C | 6.85 0C | 4.49 0C | 1.4 0C | -0.09 0C | 3.75 0C |
| NC(=O)c1cnc(N2CCC[C@H](N)C2)nc1Nc1cccc(-c2ccccc2)c1 [Compound 12, (S)-4-([1,1′-Biphenyl]-3-ylamino)-2-(3-aminopiperidin-1-yl)pyrimidine-5-carboxamide Hydrochloride] | 2.35 0C | 12.19 0C | 8.03 0C | 4.98 0C | 0.32 0C | 1.64 0C | 5.67 0C |
| CC(C)(C#N)c1cccc(Nc2nc(N3CCC[C@H](N)C3)ncc2C(N)=O)c1 [Compound 13, (S)-2-(3-Aminopiperidin-1-yl)-4-((3-(2-cyanopropan-2-yl)phenyl)amino)pyrimidine-5-carboxamide] | 0.6 0C | 6.35 0C | 6.82 0C | 4.38 0C | 0.46 0C | 0.32 0C | 1.98 0C |
| CC(C)c1cc(Nc2nc(N3CCC[C@H](N)C3)ncc2C(N)=O)cc(C(C)C)c1 [Compound 15, (S)-2-(3-Aminopiperidin-1-yl)-4-((3,5-diisopropylphenyl)amino)pyrimidine-5-carboxamide] | 2.19 0C | 10.33 0C | 8.08 0C | 6.46 0C | -0.2 0C | 1.96 0C | 4.76 0C |
